{"source": "patent US20180094248A1", "about": "“Necroptosis Signaling as a Therapeutic Target for Alzheimer's Disease” (Arizona Board of Regents on behalf of Arizona State …, priority 2016, published 2018)", "system": "phosphorylated MLKL", "experiment": "Western blot of total and phosphorylated MLKL in brains of Nec-1S treated 5xFAD mice", "assay_type": "in vivo, mouse", "conditions": "8-month-old 5xFAD mice; 10 mg/kg i.p. once, then 0.5 mg/ml in drinking water for 21 days; vs vehicle", "experimental": "Specifically, mice receive a single intraperitoneal injection of 10 mg/kg Nec1s after which they were given Nec1S in their drinking water at a concentration of 0.5 mg/ml for 21 days.\nProtein Extraction: Human temporal gyms tissue samples (0.1 g/sample) were extracted in sequential buffers, from lower to higher detergent strength. Briefly, the samples were homogenized in TBS (50 mM Tris-HCl, pH 7.4, 175 mM NaCl, 5 mM EDTA, 1 mM N-ethyl-maleimide) containing protease inhibitors (Roche) and phosphatase inhibitors (Millipore). The protein extract was centrifuged at 120,000 g for 30 minutes at 4° C. The resulting supernatant represented the TBS soluble fraction. Pellets were homogenized in TBS/1% Triton X-100 and spun at 1000 g for 10 minutes at 4° C. The supernatant represented the Triton soluble fraction. Pellets were washed in TBS/1M sucrose and then homogenized in RIPA buffer. […]\nWestern blot and ELISA: The proteins were run using reducing conditions in precast gels (Thermo Fisher Scientific) and transferred to nitrocellulose membranes (iBlot, Thermo Fisher Scientific). […] The blots were then washed with TBS-T, and imaged/quantified using a LICOR Odyssey CLx (LI-COR Biosciences) attached to a Dell computer (OptiPlex 7010) running Windows 7 and Image Studio (version 1.0.11, LI-COR Biosciences). […]"}
{"smiles": "CN1C(=O)NC(Cc2c[nH]c3c(Cl)cccc23)C1=O", "note": "(stereo not shown) [Nec1S, 5-((7-chloro-1 H-indol-3-yl)methyl)-3-methylimidazolidine-2,4-dione]", "values": [{"measurement": "pMLKL/MLKL ratio", "value": "lower pMLKL/MLKL ratio"}]}
